The source of these data is patent US20210244712A1, “METHODS FOR TREATING PATIENTS WITH CANCER HAVING DEFECTS IN CYCLIN D REGULATION” (NysnoBio Ireland DAC, priority 2018, published 2021).

pEC50, pIC50: −log10 of the molar value.

What all share (type): cell-based
One experiment concerns OAW28. Description: Cell proliferation assay. The note with it: Homo sapiens, OAW-28.
A further experiment relates to cyclin E1. Description: Western blot of cellular biomarker cyclin E1. The note with it: 250 nM Compound 42, 24 hours, compared to palbociclib 1 μM. How it is done:
Various cancer cells lines were treated with Compound 42 or palbociclib (control) to measure the expression of cyclin D, cyclin E, pRb, and Rb.
Day 1: 6 well plate was seeded with 3×10^5 cells/well with a final volume of 3 mL and incubated for 24 hours at 37° C.
Day 2: The media was removed and Compound 42 (see below for dose) or palbociclib (1 μM) as positive control were added to the wells the desired concentration in cell culture media, giving a final volume of 3 mL per well. The plate was incubated for 24 hours at 37° C. (or desired period).
Day 3: The media was removed from wells and washed ×3 with PBS. 500 μl of trypsin was added to the wells and incubate until cells detach. 500 μl media was added to neutralise trypsin, transferred to 2 ml Eppendorfs, and centrifuged (1500 RPM for 5 minutes). While spinning, the wells were washed with 1 mL PBS to collect any remaining cells. This wash was used to centrifuged cell pellet. After the first spin, the supernatant was discarded and the pellet was washed with PBS collected from the previous step. The centrifugation step was repeated and the supernatant was discarded and the pellet wash again with fresh PBS. The centrifugation and wash with PBS was repeated one more time. RIPA cell lysate buffer was prepared and Protease Inhibitor Cocktail was included. The supernatant was discarded and […] RIPA cell lysate buffer was added to the pellet. The protein concentration was determined using the BCA assay kit.
Day 4: Western blot analysis was performed. 4-12% Bis-Tris gel and MOPS running buffer was used. The running buffer was made to sufficient volume of running buffer to 1× concentration. 20 μg protein (v/v loading & reducing buffer) of each sample was loaded into wells. Some proteins may require more, or less, protein loaded. The gel was ran at standard settings 200 V for 45 minutes. […] The membrane was blocked using 5% non-fat powdered milk* made up in 1×TBS containing 0.1% Tween (TBS-T and incubated for 1 hr with gentle rocking. The observation from the Western blot analysis is quantified in FIGS. 2-7D. […]

Another experiment has as its system SW626. As to the kind of experiment: Cell proliferation assay. To be noted: Homo sapiens; Table 7a; Ovarian (SW626).

Broadly, the pIC50 is the IC50 on a negative log10 scale, so that one unit is a factor of ten. What is called pEC50 is the negative decadic logarithm of the EC50, by convention in mol/L. A higher pEC50 goes with a small EC50. On to `Cc1ccccc1C(=O)Nc1nc(NC(=O)c2ccccc2C)n(-c2ccc(OC(F)(F)F)cc2)n1` [Compound 42, N,N′-(1-(4-(trifluoromethoxy)phenyl)-1H-1,2,4-triazole-3,5-diyl)bis(2-methylbenzamide)], for which the pIC50 in the experiment with OAW28 (Ovarian OAW28, overexpression of Cyclin D, loss of p16 (mutant p53), loss of RB) is 6.85. The pEC50 with OAW28 (Table 7a, Ovarian (OAW28)) was 6.94; in the experiment on SW626 it was 6.48. In addition, the “cyclin E1 expression” value in the experiment on cyclin E1 (A2780) is “reduction of cyclin E1 expressions”; in the experiment on cyclin E1 (ES-2), “reduction of cyclin E1 expressions”; with cyclin E1 (OAW42), “some reduction of cyclin E1 expression”.
